Experimental data from patent US12319696B2, “2,6-dimethyl-n-((pyridin-4-yl)methyl)imidazo[1,2-b]pyridazin-8-amine and 2,5-dimethyl-n-[(pyridin-4-yl)methyl]pyrazolo[1,5-a]pyrimidin-7-amine derivatives for treating viral infections” (CUROVIR AB, priority 2018, dated 2025).

Key:
[1] = mice; cited from earlier work
enterovirus strain 6 = experiment: microbe, parasite or virus in culture; type: cell-based; settings: inhibition of viral CPE
CYP3A4 = target: T1, CYP3A4 (Homo sapiens, UniProt P08684); experiment: In vitro CYP 3A4 enzyme inhibition in human liver microsomes by probe substrate method; type: in vitro ADME; settings: human liver microsomes 0.5 mg/mL; probe substrate Midazolam 5 μM
T1 construct: from tissue; host or cells: human liver microsomes
Procedure: In Vitro CYP 3A4 Enzyme Inhibition Study in Human Liver Microsomes by Probe Substrate Method
In vitro CYP3A4 enzyme inhibition assay was performed using Human liver microsomes at 0.5 mg/mL concentration. Ketoconazole was used as reference inhibitor and Midazolam was used as selective probe substrate for CYP 3A4 enzyme. Serial dilution of test/control items was prepared in potassium phosphate buffer (50 mM, pH 7.40) to obtain eight concentrations each in a 1:4 dilution pattern. The percentage of acetonitrile/DMSO was maintained at 2.5%/0.25% in 2.5× serially diluted control/test item solutions respectively. The final percentage of acetonitrile/DMSO was 1%/0.1% respectively. Intermediate solutions such as 10× working solution (5 mg/mL) of Human liver microsomal solution, 10× concentration of reference probe substrates in buffer, 5× concentrations of Cofactors (5.0 mM NADP+, 25.0 mM G-6-P, 3.0 IU/mL G-6-PDH and 10.0 mM MgCl2) were prepared in potassium phosphate buffer. The final concentration of liver microsomes in the reaction mixture was 0.5 mg/mL, cofactors was 1.0 mM NADP+, 5.0 mM G-6-P, 0.6 IU/mL G-6-PDH and 2.0 mM MgCl2. Midazolam was tested at 5 μM test concentration. 40 μL of 2.5× serially diluted test/control item solutions and 10 μL of […] liver microsomal solution were added to 96 well plate and incubated for 10 min at 37° C. with shaking condition (400 rpm) using Thermomixer. After pre incubation, 20 μL of potassium phosphate buffer, 10 μL of respective probe substrate working solution and 20 μL of cofactor mix was added.

[2] = test system: coxsackie B virus strain 5; experiment: Antiviral CPE inhibition assay in mammalian cell culture, Cox B5; type: cell-based
[3] = Metabolic stability in rat liver microsomes; type: in vitro ADME; settings: 5 μM test item, 0.25 mg/mL microsomal protein
Procedure: (§1) Metabolic stability assay was carried out using Human/Rat liver microsomes. […] Test item/Control items were incubated with Human/Rat liver microsomes with cofactors and without cofactors. The reaction mixture (100 μL) was removed at specified time period and the reaction was stopped by addition of stop solution. The samples were extracted in presence of internal standard and were analyzed using LC-MS/MS. The percent of the test/Control item remaining after specified incubation period was calculated with respect to the peak area ratio at time 0 min. […] The reaction mixture was incubated further at 37° C. for specified incubation time points (With Cofactors: 0, 15, 30, 60 and 120 min; Without Cofactors: 0 and 120 min). 100 μL incubation samples of test items and Control items at specified incubation time points were transferred to respective tubes for sample extraction. Test and Control item specimens were extracted by Protein precipitation method. A 100 μL incubation sample at each time point was added to tubes containing 200 μL of ice-cold acetonitrile and 50 μL Haloperidol solution (0.5 μg/mL). Then the tubes were vortex mixed thoroughly and centrifuged at 10000 rpm for 10 minutes at 4° C. A clear supernatant of 200 μL of samples were submitted for LC-MS/MS analysis.

[4] = Metabolic stability in human liver microsomes; type: in vitro ADME; settings: 5 μM test item, 0.25 mg/mL microsomal protein
Procedure: as §1

polio virus strain 1 = experiment: organism not typed; type: cell-based
enterovirus strain 30 = experiment: Antiviral CPE inhibition assay in mammalian cell culture, EV30; type: cell-based; settings: inhibition of viral CPE
enterovirus D68 = experiment: Antiviral CPE inhibition assay in mammalian cell culture, EV-D68; type: cell-based; settings: Enterovirus D, EVD68, inhibition of viral CPE
enterovirus strain 71 = experiment: Antiviral CPE inhibition assay in mammalian cell culture, EV71; type: cell-based; settings: inhibition of viral CPE
[5] = test system: coxsackie B virus strain 2; experiment: Antiviral CPE inhibition assay in mammalian cell culture, Cox B2; type: cell-based
[6] = test system: coxsackie B virus strain 3; experiment: Antiviral CPE inhibition assay in mammalian cell culture, Cox B3; type: cell-based
[7] = Human plasma protein binding (Rapid Equilibrium Dialysis); type: in vitro ADME; settings: pH 7.4, RED device, 37° C.
Procedure: (§2) Plasma protein binding study was performed using a Rapid Equilibrium Dialysis (RED) device containing dialysis membrane with a molecular weight cut-off of 8,000 Daltons. Each dialysis insert contained two chambers. The red chamber was for the plasma while the white chamber was for the buffer. Test items and Control items (Warfarin and Propranolol) were prepared at a required test concentration of 10 μM in Human/Rat plasma (pH adjusted to 7.40) using 10 mM DMSO stocks (final DMSO concentration was 0.1%). 300 μL of plasma sample was added into the sample chamber. 500 μL of buffer was added into the buffer chamber. After sealing the RED device with an adhesive film, incubation was done at 37° C. with shaking at 300 rpm for 4 h. Following incubation, an aliquot of 50 μL was removed from each well (plasma and buffer side) and diluted with equal volume of opposite matrix to nullify the matrix effect and subjected for sample extraction.
(§3) All samples were extracted by Protein Precipitation method by adding 200 μL of ice cold Acetonitrile and 50 μL of internal standard (Haloperidol at 0.1 μg/mL) solution. The tubes were vortex mixed thoroughly and centrifuged at 10000 rpm, 4° C. for 10 minutes. A clear supernatant of 200 μL of samples were submitted for LC-MS/MS analysis.

in vivo = experiment: in vivo; design: species or system Sprague Dawley rats; settings: male, Sprague Dawley, rat, po, 10 mg/kg
Procedure: 10 mg of the compound was weighed and transferred to graduated tube. Then 500 μL of DMA (5% v/v) was added, vortex mixed thoroughly and sonicated till test item was completely dissolved. Then 5 mL of PEG 200 (50% v/v) were added, and vortex mixed thoroughly. Thereafter, Sterile Water for Injection (SWFI) was added in small increments and vortex mixed thoroughly. Finally, the volume was made up to 10 mL with SWFI (45% v/v) to obtain a clear solution with final formulation strength of 1 mg/mL. […] Formulation was freshly prepared before the administration to animals. Adult healthy male Sprague Dawley rats aged 8-10 weeks were used for experimentation after a minimum 3 days of acclimation. Fasted animals were administered with test compound in recommended vehicle (5% DMA+50% PEG 200+45% SWFI) by oral route at a dose of 10 mg/kg body weight and at dose volume of 10 mL/kg body weight. Under mild isoflurane anesthesia, blood specimens were collected into pre-labeled tubes containing anticoagulant (K2EDTA—2 mg/mL blood) at different time points post dose.

[8] = test system: coxsackie B virus strain 1; experiment: Antiviral CPE inhibition assay in mammalian cell culture, Cox B1; type: cell-based
[9] = Rat plasma protein binding (Rapid Equilibrium Dialysis); type: in vitro ADME; settings: pH 7.4, RED device, 37° C.
Procedure: as §2, §3

T1 sequence (P08684 whole entry): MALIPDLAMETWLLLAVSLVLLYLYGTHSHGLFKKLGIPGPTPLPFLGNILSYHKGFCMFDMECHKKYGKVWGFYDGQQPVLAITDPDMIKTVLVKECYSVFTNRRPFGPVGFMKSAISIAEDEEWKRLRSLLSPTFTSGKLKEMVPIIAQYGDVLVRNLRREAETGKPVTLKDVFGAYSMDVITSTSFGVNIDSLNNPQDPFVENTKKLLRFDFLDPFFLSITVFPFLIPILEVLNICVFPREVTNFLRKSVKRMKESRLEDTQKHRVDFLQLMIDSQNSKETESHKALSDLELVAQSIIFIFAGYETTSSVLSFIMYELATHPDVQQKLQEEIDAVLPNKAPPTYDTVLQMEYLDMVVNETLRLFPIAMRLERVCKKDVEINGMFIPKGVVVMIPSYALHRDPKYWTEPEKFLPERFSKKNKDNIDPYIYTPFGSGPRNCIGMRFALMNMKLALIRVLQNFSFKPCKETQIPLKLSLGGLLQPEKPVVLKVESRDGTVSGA

COc1ccc(-c2c(C)nn3c(NCCN4CCOCC4)cc(C)nc23)cc1OC [T-00127-HEV1, 3-(3,4-dimethoxyphenyl)-2,5-dimethyl-N-(2-morpholinoethyl)pyrazolo[1,5-a]pyrimidin-7-amine]
mortality when tested in-vivo [1]: induced mortality in mice

Cc1cc(NCc2ccncc2)n2nc(C)c(-c3ccc4c(c3)c(C)nn4C)c2n1 [Comp. Y, 3-(1,3-dimethyl-1H-indazol-5-yl)-2,5-dimethyl-N-[(pyridin-4-yl)methyl]pyrazolo[1,5-a]pyrimidin-7-amine, reference compound]
inhibition at 0.01 µM (enterovirus strain 6; 10 nM, read-out: Inh. at 10 nM, EV6): 100%
inhibition at 0.1 µM (enterovirus strain 6; 100 nM, read-out: Inh. at 100 nM, EV6): 100%
IC50 (CYP3A4): 280 nM
inhibition at 0.01 µM ([2]; read-out: Inh. at 10 nM, Cox B5): 85%
inhibition at 0.1 µM ([2]; read-out: Inh. at 100 nM, Cox B5): 100%
% remaining after incubation for 60 min, Rat microsomes [3]: 89.7%
% remaining after incubation for 60 min, Human microsomes [4]: 86.2%
inhibition at 0.01 µM (polio virus strain 1; read-out: Inh. at 10 nM, Polio 1): 100%
inhibition at 0.1 µM (polio virus strain 1; read-out: Inh. at 100 nM, Polio 1): 100%
inhibition at 0.01 µM (enterovirus strain 30; 10 nM, read-out: Inh. at 10 nM, EV30): 100%
inhibition at 0.1 µM (enterovirus strain 30; 100 nM, read-out: Inh. at 100 nM, EV30): 100%
inhibition at 0.01 µM (enterovirus D68; 10 nM, read-out: Inh. at 10 nM, EV-D68): 85%
inhibition at 0.1 µM (enterovirus D68; 100 nM, read-out: Inh. at 100 nM, EV-D68): 80%
inhibition at 0.01 µM (enterovirus strain 71; 10 nM, read-out: Inh. at 10 nM, EV71): 87%
inhibition at 0.1 µM (enterovirus strain 71; 100 nM, read-out: Inh. at 100 nM, EV71): 86%
inhibition at 0.01 µM ([5]; read-out: Inh. at 10 nM, Cox B2): 100%
inhibition at 0.1 µM ([5]; read-out: Inh. at 100 nM, Cox B2): 100%
inhibition at 0.01 µM ([6]; read-out: Inh. at 10 nM, Cox B3): 100%
inhibition at 0.1 µM ([6]; read-out: Inh. at 100 nM, Cox B3): 100%
fraction unbound at 4 h, 10 μM [7]: 0.027
AUC(0-inf) (in vivo): 15500 ± 1900 ng·h/mL
AUC(0-t) (in vivo): 14800 ± 2600 ng·h/mL
AUCextrap (in vivo): 4.6 ± 5.6%
Cmax (in vivo): 2300 ± 300 ng/mL
MRT last (in vivo): 4.4 ± 1.1 h
Tmax (in vivo): 1.2 ± 0.8 h
half-life (in vivo): 3.4 ± 1.2 h
inhibition at 0.01 µM ([8]; read-out: Inh. at 10 nM, Cox B1): 100%
inhibition at 0.1 µM ([8]; read-out: Inh. at 100 nM, Cox B1): 100%
fraction unbound at 4 h, 10 μM [9]: 0.024
